Test results from ChEMBL document CHEMBL2057079, “Activity-based fluorescent probes for monitoring sulfatase activity” (Bioorg Med Chem Lett, 2012).
Active and inactive are the calls of the source. The calls are words filed in the database; no cut-off is given here.

Organism: Homo sapiens
Experiment: Binding affinity to arylsulfatase assessed as fluorescence quenching at 10 uM at pH 7.5 after 1.5 hrs by fluorescence spectrophotometry

- Activity: inactive
Compound: CN(C)c1cccc2c(S(=O)(=O)NCC(O)c3ccc(OS(=O)(=O)O)cc3)cccc12 (stereo unspecified)
